Test results: PubChem BioAssay AID2060507 (Molecular Pharmacology Branch, DTP, NCI, 2025)

Test system: 519858-162-T-J1-PDC complex spheroid viability
Test: Anticancer human tumor 519858-162-T-J1-PDC patient-derived colon adenocarcinoma cell line growth inhibition [GQUAD]
Details: for IC50: curve of first compound; for viability, T/C: stronger effect = lower value; active = viability on the fitted dose curve at most 10% of control; inactive = the rest
In short: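 Tumor cells were grown as complex spheroids with HUVEC endothelial cells and mesenchymal stem cells as stroma. G-quadruplex stabilizers were combined with targeted agents over half-log dilutions from near the clinical Cmax, or from 10 microM.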

[1] = second compound 0.0316 µM, first compound 0.0316 µM
[2] = second compound 0.0316 µM, first compound 0.1 µM
[3] = second compound 0.0316 µM, first compound 0.316 µM
[4] = second compound 0.0316 µM, first compound 1 µM
[5] = second compound 0.0316 µM, first compound 3.16 µM
[6] = second compound 0.0316 µM, first compound 10 µM
[7] = second compound 0.1 µM, first compound 0.0316 µM
[8] = second compound 0.1 µM, first compound 0.1 µM
[9] = second compound 0.1 µM, first compound 0.316 µM
[10] = second compound 0.1 µM, first compound 1 µM
[11] = second compound 0.1 µM, first compound 3.16 µM
[12] = second compound 0.1 µM, first compound 10 µM
[13] = second compound 0.316 µM, first compound 0.0316 µM
[14] = second compound 0.316 µM, first compound 0.1 µM
[15] = second compound 0.316 µM, first compound 0.316 µM
[16] = second compound 0.316 µM, first compound 1 µM
[17] = second compound 0.316 µM, first compound 3.16 µM
[18] = second compound 0.316 µM, first compound 10 µM
[19] = second compound 1 µM, first compound 0.0316 µM
[20] = second compound 1 µM, first compound 0.1 µM
[21] = second compound 1 µM, first compound 0.316 µM
[22] = second compound 1 µM, first compound 1 µM
[23] = second compound 1 µM, first compound 3.16 µM
[24] = second compound 1 µM, first compound 10 µM
[25] = second compound 3.16 µM, first compound 0.0316 µM
[26] = second compound 3.16 µM, first compound 0.1 µM
[27] = second compound 3.16 µM, first compound 0.316 µM
[28] = second compound 3.16 µM, first compound 1 µM
[29] = second compound 3.16 µM, first compound 3.16 µM
[30] = second compound 3.16 µM, first compound 10 µM
[31] = second compound 10 µM, first compound 0.0316 µM
[32] = second compound 10 µM, first compound 0.1 µM
[33] = second compound 10 µM, first compound 0.316 µM
[34] = second compound 10 µM, first compound 1 µM
[35] = second compound 10 µM, first compound 3.16 µM
[36] = second compound 10 µM, first compound 10 µM
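Also: spheroids exposed to compounds for 7 days.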
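For viability, T/C in this document: 100% = DMSO vehicle control viability.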

COc1cc(C2c3cc4c(cc3C(OC3OC5COC(C)OC5C(O)C3O)C3COC(=O)C23)OCO4)cc(OC)c1O (stereo not drawn) + CN(C)c1ccc(Nc2c3ccc(NC(=O)CCN4CCCC4)cc3nc3cc(NC(=O)CCN4CCCC4)ccc23)cc1
> 10 µM: IC50 (second compound 0.0316 µM) | IC50 (second compound 0.1 µM) | IC50 (second compound 0.316 µM) | IC50 (second compound 1 µM) | IC50 (second compound 3.16 µM) | IC50 (second compound 10 µM)
inactive: viability, T/C [1] 87.2% | viability, T/C [2] 80.1% | viability, T/C [3] 83.5% | viability, T/C [4] 69.2% | viability, T/C [5] 80.7% | viability, T/C [6] 103% | viability, T/C [7] 68.6% | viability, T/C [8] 81.8% | viability, T/C [9] 79.6% | viability, T/C [10] 94.3% | viability, T/C [11] 60.8% | viability, T/C [12] 84% | viability, T/C [13] 93.5% | viability, T/C [14] 95.8% | viability, T/C [15] 80.5% | viability, T/C [16] 61.8% | viability, T/C [17] 77% | viability, T/C [18] 62.7% | viability, T/C [19] 85.4% | viability, T/C [20] 65.2% | viability, T/C [21] 64.9% | viability, T/C [22] 65.9% | viability, T/C [23] 77% | viability, T/C [24] 80.3% | viability, T/C [25] 59.8% | viability, T/C [26] 76.2% | viability, T/C [27] 65.3% | viability, T/C [28] 74.1% | viability, T/C [29] 101% | viability, T/C [30] 67.6% | viability, T/C [31] 55.6% | viability, T/C [32] 69.2% | viability, T/C [33] 73.6% | viability, T/C [34] 64.3% | viability, T/C [35] 74.8% | viability, T/C [36] 83.8%

COc1cccc2c1C(=O)c1c(O)c3c(c(O)c1C2=O)CC(O)(C(=O)CO)CC3OC1CC(N)C(O)C(C)O1 (stereo not drawn) + CN(C)c1ccc(Nc2c3ccc(NC(=O)CCN4CCCC4)cc3nc3cc(NC(=O)CCN4CCCC4)ccc23)cc1
inactive: viability, T/C [1] 80.7% | viability, T/C [2] 124% | viability, T/C [3] 97.7% | viability, T/C [4] 72% | viability, T/C [5] 71% | viability, T/C [6] 58.1% | viability, T/C [7] 90.6% | viability, T/C [8] 84.6% | viability, T/C [9] 104% | viability, T/C [10] 80.8% | viability, T/C [11] 60.5% | viability, T/C [12] 60.1% | viability, T/C [13] 88.4% | viability, T/C [14] 58.5% | viability, T/C [15] 79.7% | viability, T/C [16] 65.1% | viability, T/C [17] 62.2% | viability, T/C [18] 75.5% | viability, T/C [19] 85.5% | viability, T/C [20] 71.9% | viability, T/C [21] 56.4% | viability, T/C [22] 100% | viability, T/C [23] 65.2% | viability, T/C [24] 47.1% | viability, T/C [25] 74.9% | viability, T/C [26] 60.6% | viability, T/C [27] 80% | viability, T/C [28] 66.8% | viability, T/C [29] 63.2% | viability, T/C [30] 55.8% | viability, T/C [31] 57.1% | viability, T/C [32] 62.9% | viability, T/C [33] 57.1% | viability, T/C [34] 60.1% | viability, T/C [35] 50.3% | viability, T/C [36] 68.8%
8.56 µM: IC50 (second compound 1 µM)
> 10 µM: IC50 (second compound 0.0316 µM) | IC50 (second compound 0.1 µM) | IC50 (second compound 0.316 µM) | IC50 (second compound 3.16 µM) | IC50 (second compound 10 µM)

COc1ncnc(C2CC2)c1-c1ncc2cnn(Cc3ccc(-c4nc(C(F)(F)F)cn4C(C)C)cc3)c2n1 + CN(C)c1ccc(Nc2c3ccc(NC(=O)CCN4CCCC4)cc3nc3cc(NC(=O)CCN4CCCC4)ccc23)cc1
> 10 µM: IC50 (second compound 0.0316 µM) | IC50 (second compound 0.1 µM) | IC50 (second compound 0.316 µM) | IC50 (second compound 1 µM) | IC50 (second compound 3.16 µM) | IC50 (second compound 10 µM)
inactive: viability, T/C [1] 120% | viability, T/C [2] 83% | viability, T/C [3] 103% | viability, T/C [4] 89.3% | viability, T/C [5] 99.6% | viability, T/C [6] 115% | viability, T/C [7] 93.4% | viability, T/C [8] 97.8% | viability, T/C [9] 102% | viability, T/C [10] 75.6% | viability, T/C [11] 91.4% | viability, T/C [12] 103% | viability, T/C [13] 86% | viability, T/C [14] 117% | viability, T/C [15] 116% | viability, T/C [16] 76% | viability, T/C [17] 66.5% | viability, T/C [18] 84.9% | viability, T/C [19] 85.1% | viability, T/C [20] 80.7% | viability, T/C [21] 67.5% | viability, T/C [22] 68% | viability, T/C [23] 73% | viability, T/C [24] 72.4% | viability, T/C [25] 114% | viability, T/C [26] 79.7% | viability, T/C [27] 52.2% | viability, T/C [28] 56.6% | viability, T/C [29] 54% | viability, T/C [30] 69.8% | viability, T/C [31] 58.7% | viability, T/C [32] 53.3% | viability, T/C [33] 99.4% | viability, T/C [34] 61.9% | viability, T/C [35] 51.7% | viability, T/C [36] 104%

COc1ccc([C@@H](O)c2cc(-c3ncnc4cc(N5CCOCC5)ccc34)c(F)cc2Cl)nn1 + Cc1[nH]c2ccc(F)cc2c1-c1nc2c3cccnc3c3ncccc3c2[nH]1
9.78 µM: IC50 (second compound 10 µM)
5.82 µM: IC50 (second compound 3.16 µM)
> 10 µM: IC50 (second compound 0.0316 µM) | IC50 (second compound 0.1 µM) | IC50 (second compound 0.316 µM) | IC50 (second compound 1 µM)
inactive: viability, T/C [1] 79% | viability, T/C [2] 99.7% | viability, T/C [3] 71.4% | viability, T/C [4] 86.4% | viability, T/C [5] 74.1% | viability, T/C [6] 53% | viability, T/C [7] 82.9% | viability, T/C [8] 92.8% | viability, T/C [9] 88.3% | viability, T/C [10] 72.6% | viability, T/C [11] 85.1% | viability, T/C [12] 54.7% | viability, T/C [13] 96% | viability, T/C [14] 104% | viability, T/C [15] 64% | viability, T/C [16] 72.7% | viability, T/C [17] 89.4% | viability, T/C [18] 70.2% | viability, T/C [19] 123% | viability, T/C [20] 90.4% | viability, T/C [21] 87% | viability, T/C [22] 77.5% | viability, T/C [23] 97.4% | viability, T/C [24] 42.8% | viability, T/C [25] 66.9% | viability, T/C [26] 87.5% | viability, T/C [27] 84.9% | viability, T/C [28] 64.9% | viability, T/C [29] 65.5% | viability, T/C [30] 37.9% | viability, T/C [31] 58.5% | viability, T/C [32] 86.9% | viability, T/C [33] 58.9% | viability, T/C [34] 82.2% | viability, T/C [35] 70.5% | viability, T/C [36] 49.5%
